Measured values published in paper PMC11898958, “Application of Biomimetic Chromatography and QSRR Approach for Characterizing Organophosphate Pesticides” (International Journal of Molecular Sciences, 2025).
Where two headings read alike, the source gives them in different places.

Columns and labels:
[1] = Affinity to phospholipids by IAM-HPLC (IAM.PC.DD2 column); format: physicochemical
Method: (§1) Elution was conducted under the following conditions:
(§2) The injected volume was 10 μL. […] Each sample was analyzed three times.

[2] = Chromatographic lipophilicity by RP-HPLC on C18 column (CHIC18); format: physicochemical
Method: as §1, §2

human serum albumin = human serum albumin (Homo sapiens, UniProt P02768)
Chain of human serum albumin (P02768 25-609): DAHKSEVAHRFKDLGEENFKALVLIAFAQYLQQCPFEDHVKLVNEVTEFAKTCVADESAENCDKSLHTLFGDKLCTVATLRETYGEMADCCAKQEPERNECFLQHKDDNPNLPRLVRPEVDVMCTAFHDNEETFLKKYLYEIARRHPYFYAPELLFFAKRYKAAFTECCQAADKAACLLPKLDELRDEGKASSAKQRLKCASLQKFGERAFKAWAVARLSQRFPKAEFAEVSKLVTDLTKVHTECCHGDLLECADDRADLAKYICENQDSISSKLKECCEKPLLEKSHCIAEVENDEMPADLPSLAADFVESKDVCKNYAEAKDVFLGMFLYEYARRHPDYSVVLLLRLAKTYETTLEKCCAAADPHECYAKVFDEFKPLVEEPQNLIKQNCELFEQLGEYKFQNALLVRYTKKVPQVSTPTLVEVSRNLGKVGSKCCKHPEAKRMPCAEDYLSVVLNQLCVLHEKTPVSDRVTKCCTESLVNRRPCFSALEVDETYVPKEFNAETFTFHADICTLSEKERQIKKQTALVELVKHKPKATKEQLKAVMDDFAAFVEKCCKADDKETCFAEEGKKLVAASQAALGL
Method: Each column was equipped with an appropriate precolumn. Elution was conducted under the following conditions:

[3] = IAM.PC.DD2 column, acetonitrile gradient, 50 mM ammonium acetate pH 7.4, 30 °C
[4] = C18 XTERRA RP18 column, acetonitrile gradient, 50 mM ammonium acetate pH 7.4, 30 °C
[5] = HSA column, isopropanol gradient, 50 mM ammonium acetate pH 7.4, 30 °C

Compound | CHIIAM (chromatographic hydrophobicity index of IAM-HPLC) [1, 3] | CHIC18 (chromatographic hydrophobicity index of RP-HPLC) [2, 4] | %HSA (binding to HSA) (human serum albumin; [5]) [%] | LogkHSA (chromatographically determined affinity to HSA-HPLC) (human serum albumin; [5]) | further results
CCOP(=S)(OCC)SCn1nnc2ccccc2c1=O [Azinphos-ethyl] | 37.81 | 95.69 | 92.07 | 1.01 | –
COP(=S)(OC)SCn1nnc2ccccc2c1=O [Azinphos-methyl] | 33.18 | 83.47 | 86.70 | 0.78 | –
CCOP(=O)(OCC)OC(=CCl)c1ccc(Cl)cc1Cl [Chlorfenvinphos] | 38.13 | 97.18 | 85.54 | 0.74 | –
CCOP(=S)(OCC)Oc1cc(C)nc(C(C)C)n1 [Diazinon] | 39.34 | 105.98 | 81.33 | 0.62 | CHIC18 (chromatographic hydrophobicity index of RP-HPLC) ([2]; C18 XTERRA RP18 column, acetonitrile gradient, 50 mM ammonium acetate pH 7.4, 30 °C, listed as diazinon): remarkably high lipophilicity
COP(=O)(OC)OC=C(Cl)Cl [Dichlorvos] | 16.56 | 23.17 | 65.86 | 0.27 | CHIC18 (chromatographic hydrophobicity index of RP-HPLC) ([2]; C18 XTERRA RP18 column, acetonitrile gradient, 50 mM ammonium acetate pH 7.4, 30 °C, listed as dichlorvos): low lipophilicity
CCOP(=S)(OCC)SCCSCC [Disulfoton] | 42.34 | 108.97 | 92.86 | 1.06 | CHIIAM (chromatographic hydrophobicity index of IAM-HPLC) ([1]; IAM.PC.DD2 column, acetonitrile gradient, 50 mM ammonium acetate pH 7.4, 30 °C, listed as disulfoton): highest CHIIAM values; CHIC18 (chromatographic hydrophobicity index of RP-HPLC) ([2]; C18 XTERRA RP18 column, acetonitrile gradient, 50 mM ammonium acetate pH 7.4, 30 °C, listed as disulfoton): remarkably high lipophilicity
CCCSP(=O)(OCC)SCCC [Ethoprophos] | – | – | – | – | CHIIAM (chromatographic hydrophobicity index of IAM-HPLC) ([1]; pH 7.4): 32.41; CHIC18 (chromatographic hydrophobicity index of RP-HPLC) ([2]; pH 7.4): 88.39; %HSA (binding to HSA) (human serum albumin; human, pH 7.4): 28.35%; LogkHSA (chromatographically determined affinity to HSA-HPLC) (human serum albumin; human, pH 7.4): −0.41
COP(=S)(OC)Oc1ccc([N+](=O)[O-])c(C)c1 [Fenitrothion] | 38.10 | 93.49 | 91.78 | 1.00 | –
COP(=S)(OC)Oc1ccc(SC)c(C)c1 [Fenthion] | 42.37 | 102.16 | 96.04 | 1.29 | CHIIAM (chromatographic hydrophobicity index of IAM-HPLC) ([1]; IAM.PC.DD2 column, acetonitrile gradient, 50 mM ammonium acetate pH 7.4, 30 °C, listed as fenthion): highest CHIIAM values; %HSA (binding to HSA) (human serum albumin; HSA column, isopropanol gradient, 50 mM ammonium acetate pH 7.4, 30 °C, listed as fenthion): highest protein-binding capacity
CCOC(=O)N(C)C(=O)CSP(=S)(OCC)OCC [Mecarbam] | 35.77 | 97.09 | 74.23 | 0.44 | –
COP(=O)(OC)OC(Br)C(Cl)(Cl)Br (centres unmarked) [Naled] | 29.79 | 31.32 | 43.86 | −0.11 | CHIC18 (chromatographic hydrophobicity index of RP-HPLC) ([2]; C18 XTERRA RP18 column, acetonitrile gradient, 50 mM ammonium acetate pH 7.4, 30 °C, listed as naled): low lipophilicity
CCOP(=O)(OCC)Oc1ccc([N+](=O)[O-])cc1 [Paraoxon-ethyl] | 25.34 | 72.54 | 27.68 | −0.42 | –
COP(=S)(OC)Oc1ccc([N+](=O)[O-])cc1 [Parathion-methyl] | 35.54 | 88.75 | 87.94 | 0.83 | –
CCOP(=S)(OCC)SCSCC [Phorate] | 42.43 | 108.36 | 93.08 | 1.07 | CHIIAM (chromatographic hydrophobicity index of IAM-HPLC) ([1]; IAM.PC.DD2 column, acetonitrile gradient, 50 mM ammonium acetate pH 7.4, 30 °C, listed as phorate): highest CHIIAM values
COP(=S)(OC)SCN1C(=O)c2ccccc2C1=O [Phosmet] | 33.89 | 85.39 | 87.23 | 0.80 | –
CCOP(=S)(OCC)Oc1cnc2ccccc2n1 [Quinalphos] | 39.40 | 101.01 | 91.23 | 0.97 | CHIC18 (chromatographic hydrophobicity index of RP-HPLC) ([2]; C18 XTERRA RP18 column, acetonitrile gradient, 50 mM ammonium acetate pH 7.4, 30 °C, listed as quinalphos): remarkably high lipophilicity
Chlorpyrifos-oxon | 24.96 | 39.17 | – | 0.68 | %HSA (binding to HSA) (human serum albumin; pH 7.4): 83.49%
